Experimental data reported in publication PMC12098374, “Case report: Treatment of severe phorate poisoning” (Frontiers in Toxicology, 2025).

Columns and labels:
[1] = Serum levels of phorate, its metabolites and PAM in the poisoned patient (LC-MS); format: in vivo, human; settings: for concentration at 1 day / concentration at 4 h / concentration at 3 day / concentration at 5 day / concentration at 7 day / concentration at 10 day / concentration at 12 day / concentration at 14 day / concentration at 16 day / concentration at 18 day: human, in vivo; for change of serum level while HP was stopped: seventh-10th day, family rejected HP
Experimental: LC-MS was used to detect atropine,PAM,phorate and its metabolites. Ultra-high-pressure liquid chromatography-tandem mass spectrometry on a Sciex Triple TOFTM 5600+ mass spectrometer was used for toxic metabolites terminology screening. Ultra-high-pressure liquid chromatography-tandem mass spectrometry on a Sciextriplequad5500 mass spectrometer was used to detect target analytes quantitatively. Liquid chromatographic separations were performed with a Kinetex C18 column (2.1*50 mm,2.6 μm) from Phenomenex (Torrance, California, United States).Data were processed using the Xcalibur software (version2.0.7) from ThermoFisher.

[2] = target: cholinesterase; settings: ref Kovarova et al., 2013, cited from earlier work; for IC50: read-out: cholinesterase inhibition IC50; for times more toxic than phorate: relative to phorate, from IC50
[3] = target: T1, cholinesterase (Homo sapiens, UniProt P06276); test: Serum cholinesterase level of the patient during phorate poisoning; format: in vivo; settings: for serum cholinesterase activity: patient
T1 construct: from tissue; host or cells: serum of the patient
Experimental: Cholinesterase levels were measured using petrochemistry products, Ortho Medical Equipment Trade (China) Co., Ltd. slides, and the Medical Device of the PRC Registration Certificate NO.: 20212402803. Dry tablets (rate method) and compound calibrator for cholinesterase were determined by cholinesterase on a vitros5600 automatic biochemical immunoanalyzer (VITROS Chemistry Products, Calibrator kit 6). The reportable range of measurement was 200–12,500 U/L.

[4] = tested on: AChE; set-up: method as in Moyer et al., 2018b; settings: within 48 h; ref Moyer et al., 2018b; cited from earlier work
[5] = 24 h after ingestion; cited from earlier work
[6] = liposolubility; cited from earlier work
[7] = patient, day 1, before HP, about 4 h after ingestion of 60% phorate emulsion

T1 sequence (P06276 29-602): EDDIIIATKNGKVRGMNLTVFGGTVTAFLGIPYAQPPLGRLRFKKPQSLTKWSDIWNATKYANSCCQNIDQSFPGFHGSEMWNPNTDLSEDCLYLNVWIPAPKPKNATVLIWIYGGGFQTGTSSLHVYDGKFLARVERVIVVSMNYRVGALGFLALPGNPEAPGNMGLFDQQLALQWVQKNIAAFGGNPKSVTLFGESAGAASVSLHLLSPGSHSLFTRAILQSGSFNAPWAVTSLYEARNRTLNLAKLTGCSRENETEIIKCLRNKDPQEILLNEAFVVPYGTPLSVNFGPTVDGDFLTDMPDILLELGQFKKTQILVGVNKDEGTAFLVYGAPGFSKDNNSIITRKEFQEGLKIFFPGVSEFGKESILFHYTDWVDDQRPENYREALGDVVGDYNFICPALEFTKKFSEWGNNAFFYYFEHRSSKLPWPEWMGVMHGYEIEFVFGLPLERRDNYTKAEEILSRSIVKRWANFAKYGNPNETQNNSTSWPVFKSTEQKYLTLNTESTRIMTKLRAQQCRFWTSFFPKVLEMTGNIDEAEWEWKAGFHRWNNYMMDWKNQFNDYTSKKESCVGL

| SMILES | concentration at 1 day ([1]; patient, day 1, after HP) [ng/mL] | concentration at 4 h [1, 7] [ng/mL] | concentration at 3 day ([1]; patient, day 3) [ng/mL] | concentration at 5 day ([1]; patient, day 5) [ng/mL] | concentration at 7 day ([1]; patient, day 7 (HP suspended)) [ng/mL] | concentration at 10 day ([1]; patient, day 10 (HP suspended)) [ng/mL] | concentration at 12 day ([1]; patient, day 12) [ng/mL] | concentration at 14 day ([1]; patient, day 14) [ng/mL] | concentration at 16 day ([1]; patient, day 16) [ng/mL] | concentration at 18 day ([1]; patient, day 18) [ng/mL] | change of serum level while HP was stopped [1] | IC50 [2] [µM] | times more toxic than phorate [2] | other results |
| --- | --- | --- | --- | --- | --- | --- | --- | --- | --- | --- | --- | --- | --- | --- |
| C[n+]1ccccc1/C=N/O [PAM, pralidoxime chloride, reference compound] | – | – | – | – | – | – | – | – | – | – | – | – | – | concentration of PAM ([1]; sixth day, after 0.5 g per hour for 5 days): significantly increased |
| CCOP(=S)(OCC)SCS(=O)(=O)CC [phorate sulfone] | 1310 | 1920 | 191 | 68.9 | 30.7 | 31 | 14.8 | 18.2 | 10.8 | 2.71 | slight rise | 40 | about 80 times | – |
| CCOP(=S)(OCC)SC[S+]([O-])CC (stereo not shown) [phorate sulfoxide] | 1020 | 1440 | 21.2 | 10.9 | 35.2 | 80.2 | 18.1 | 17.6 | 1.67 | 0 | significant rise | 1500 | – | – |
| CCOP(=S)(OCC)SCSCC [phorate, phosphorodithioic acid O, O-diethyl S-[(ethylthio)methyl] ester] | – | – | – | – | – | – | – | – | – | – | – | 3100 | – | phorate in blood ([1]; after the first HP treatment and subsequent daily HP treatments): not detected; unmetabolized phorate in first blood analysis ([1]; before HP, about 4 h after ingestion): did not detect; levels in the serum ([1]; patient, 34th day): < 10 ng/mL; cholinesterase levels ([3]; 23rd day): 1,634 U/L; cholinesterase levels ([3]; 27th day): 3592 U/L; cholinesterase levels ([3]; 34th day): 4,821 U/L; serum cholinesterase, share of the normal value ([3]; after 30 days): about 50%; serum cholinesterase activity ([3]; day 1): 268 u/L; serum cholinesterase activity ([3]; day 3): 200 u/L; serum cholinesterase activity ([3]; day 7): 200 u/L; serum cholinesterase activity ([3]; day 14): 233 u/L; serum cholinesterase activity ([3]; day 28): 3621 u/L; serum cholinesterase ([3]; upon transfer into ICU, after first blood perfusion): 268 U/L; aging of AChE inhibited by phorate [4]: no significant aging; unmetabolized phorate in blood [5]: no longer detectable; logP [6]: 3.71 |
| CCOP(=O)(OCC)SCS(=O)(=O)CC [phoratoxon sulfone] | 2110 | 3240 | 221 | 114 | 65.2 | 44.9 | 33.3 | 29.4 | 20.9 | 20.3 | gradually fell | 0.5 | 1000 times | – |
| CCOP(=O)(OCC)SC[S+]([O-])CC (stereo not shown) [phoratoxon sulfoxide] | – | – | – | – | – | – | – | – | – | – | gradually fell | 0.9 | 1000 times | serum concentration ([1]; patient, day 1, after HP): 2180 ng/mL; serum concentration [1, 7]: 4170 ng/mL; serum concentration ([1]; patient, day 3): 696 ng/mL; serum concentration ([1]; patient, day 5): 304 ng/mL; serum concentration ([1]; patient, day 7 (HP suspended)): 219 ng/mL; serum concentration ([1]; patient, day 10 (HP suspended)): 177 ng/mL; serum concentration ([1]; patient, day 12): 96.2 ng/mL; serum concentration ([1]; patient, day 14): 72.3 ng/mL; serum concentration ([1]; patient, day 16): 14.5 ng/mL; serum concentration ([1]; patient, day 18): 0.743 ng/mL |
| CCOP(=O)(OCC)SCSCC [phoratoxon] | – | – | – | – | – | – | – | – | – | – | gradually fell | 3 | 1000 times | serum concentration ([1]; patient, day 1, after HP): 161 ng/mL; serum concentration [1, 7]: 195 ng/mL; serum concentration ([1]; patient, day 3): 27.7 ng/mL; serum concentration ([1]; patient, day 5): 3.33 ng/mL; serum concentration ([1]; patient, day 7 (HP suspended)): 2.10 ng/mL; serum concentration ([1]; patient, day 10 (HP suspended)): 1.01 ng/mL; serum concentration ([1]; patient, day 12): 0.433 ng/mL; serum concentration ([1]; patient, day 14): 0.415 ng/mL; serum concentration ([1]; patient, day 16): 0 ng/mL; serum concentration ([1]; patient, day 18): 0 ng/mL |
